{"source": "patent US11998596B2", "about": "(priority 2019, dated 2024)", "test_system": "PBMCs from ASF-convalescent animals", "assay_type": "cell-based, pig", "data": [{"sequence": "NSTLVIRI", "values": [{"measurement": "Responding animals (%)", "result": "4/20 (20%)"}, {"measurement": "Responding animals (responders/tested)", "result": "4/20 (20%)"}]}]}
